Reference: PMC5874678, “Bryonolic Acid Blocks Cancer Cell Clonogenicity and Invasiveness through the Inhibition of Fatty Acid: Cholesteryl Ester Formation” (Biomedicines, 2018)

Columns and labels:
[1] = target: T1, cholesterol-5,6-epoxide hydrolase (ChEH) (Rattus norvegicus, UniProt Q9JJ46+Q9Z2Z8); assay: Cholesterol epoxide hydrolase (ChEH) inhibition assay; format: biochemical; settings: 150 μg rat liver microsomal proteins, 10 and 20 μM [14C]α-CE, compounds 0.01 to 1000 μM
T1 construct: from tissue; host or cells: rat liver microsomes
T1 sequence (Q9JJ46 2-230 limits assumed): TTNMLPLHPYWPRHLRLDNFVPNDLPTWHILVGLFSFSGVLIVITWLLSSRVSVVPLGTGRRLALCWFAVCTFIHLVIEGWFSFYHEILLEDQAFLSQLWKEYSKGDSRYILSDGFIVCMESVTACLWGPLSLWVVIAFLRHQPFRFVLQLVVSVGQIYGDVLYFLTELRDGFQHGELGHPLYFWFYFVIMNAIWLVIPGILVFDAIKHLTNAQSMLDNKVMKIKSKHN
T1 sequence (Q9Z2Z8 1-471): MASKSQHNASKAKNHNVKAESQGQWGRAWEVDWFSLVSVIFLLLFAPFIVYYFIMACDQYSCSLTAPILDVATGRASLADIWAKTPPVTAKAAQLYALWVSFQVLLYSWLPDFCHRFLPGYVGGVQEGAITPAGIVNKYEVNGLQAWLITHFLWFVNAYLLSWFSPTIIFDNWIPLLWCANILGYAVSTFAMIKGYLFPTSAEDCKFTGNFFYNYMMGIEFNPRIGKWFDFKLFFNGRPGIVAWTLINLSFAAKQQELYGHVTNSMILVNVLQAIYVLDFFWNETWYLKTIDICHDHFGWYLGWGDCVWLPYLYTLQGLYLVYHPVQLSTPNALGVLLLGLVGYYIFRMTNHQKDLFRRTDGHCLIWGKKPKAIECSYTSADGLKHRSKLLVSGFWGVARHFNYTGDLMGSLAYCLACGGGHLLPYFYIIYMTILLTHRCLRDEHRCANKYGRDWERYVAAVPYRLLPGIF
Procedure: Inhibition of ChEH activity was measured as described previously on a whole-cell assay using MCF-7 cells [33]. […] Cells were treated for 24 h with 0.6 μM [^14C]α-CE.
The mixtures were incubated over a period of 0 to 30 min. The tubes were placed in ice cold distilled water to stop the reaction and the addition of 1.5 mL chloroform/methanol (2:1) and reaction buffer (500 mL) followed. After vortexing, the lower phase was aspirated and the residual aqueous phase was extracted with chloroform (1.5 mL). The organic extracts were combined and dried under a gentle stream of nitrogen, followed by suspension in ethanol (60 µL).
Samples were applied to TLC plates that had been heated previously for 1 h at 100 °C and were developed using ethyl acetate. The regions corresponding to authentic CE and cholestane-3β,5α,6β-triol standards were visualized by iodine vapour. Radioactive metabolites were visualized using a Storm apparatus (GE Healthcare) and quantified by densitometry with the software ImageQuant version 5.2 (GE Healthcare).

[2] = target: T2, ACAT in NIH-3T3-CCK2R-E151A cells (3T3-EA) (Mus musculus, UniProt Q61263); assay: ACAT activity in intact 3T3-EA cells; format: cell-based; settings: 24 h, [14C]cholesterol; for IC50: read-out: IC50, inhibition of ACAT activity in intact cells
T2 construct: endogenous in cells; host or cells: NIH-3T3-CCK2R-E151A (3T3-EA)
T2 sequence (Q61263 1-540): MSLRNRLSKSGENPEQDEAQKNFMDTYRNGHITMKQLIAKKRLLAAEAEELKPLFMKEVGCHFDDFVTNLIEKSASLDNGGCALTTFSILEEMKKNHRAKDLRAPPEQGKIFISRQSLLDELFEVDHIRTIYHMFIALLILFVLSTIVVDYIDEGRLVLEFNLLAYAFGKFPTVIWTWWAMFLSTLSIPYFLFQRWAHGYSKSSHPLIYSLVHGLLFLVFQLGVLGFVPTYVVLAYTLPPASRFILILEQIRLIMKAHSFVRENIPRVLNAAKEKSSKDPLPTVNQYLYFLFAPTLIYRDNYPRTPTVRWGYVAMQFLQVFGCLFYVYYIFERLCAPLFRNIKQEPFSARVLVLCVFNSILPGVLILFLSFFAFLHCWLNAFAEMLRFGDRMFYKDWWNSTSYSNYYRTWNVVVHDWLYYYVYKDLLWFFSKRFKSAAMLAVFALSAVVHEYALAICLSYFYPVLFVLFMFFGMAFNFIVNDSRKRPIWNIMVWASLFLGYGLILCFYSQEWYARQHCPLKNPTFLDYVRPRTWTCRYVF
Procedure: (§1) MCF-7, MB-231, U-87 and 3T3-EA cells were plated on six-well plates (40,000 cells/well). ACAT activity in intact cells was measured as described previously. Cells were preincubated for 15 min. with solvent vehicle or increasing concentrations of BrA ranging from 1 to 200 μM in complete medium. [^14C]Cholesterol (0.2 μCi/well) was added and the cells were incubated for 24 h. At the end of the incubation, intracellular and secreted lipids in the supernatant were extracted and then separated by TLC as described previously. Free and esterified cholesterol were identified using purified ^14C commercial standards and the radioactivity of each individual lipid was quantified using a phosphor screen (Storm; GE Healthcare, Chicago, IL, USA). ACAT activity is expressed as the percentage of the ACAT activity measured in the absence of inhibitors (cells treated with solvent vehicle).
(§2) Cells were plated on 6-well plates. […]. [^14C]cholesterol (0.2 μCi/well) was added and cells were incubated for 24 h. At the end of the incubation, intracellular lipids were extracted as described in [30] and then separated by TLC as described previously. Free and esterified cholesterol were identified using purified [^14C] standards and the radioactivity associated with each individual lipid was quantified using a Phosphoscreen (Storm; Molecular Dynamics). ACAT activity is expressed as the percentage of the ACAT activity measured in the absence of inhibitors (cells treated with solvent vehicle).

ACAT in U-87 cells = target: T3, ACAT in U-87 cells (Homo sapiens, UniProt P35610); assay: ACAT activity in intact U-87 cells; format: cell-based; settings: U-87, 24 h, [14C]cholesterol; for IC50: read-out: IC50, inhibition of ACAT activity in intact cells
T3 construct: endogenous in cells; host or cells: MCF-7, MDA-MB-231, U-87
T3 sequence (P35610 1-550): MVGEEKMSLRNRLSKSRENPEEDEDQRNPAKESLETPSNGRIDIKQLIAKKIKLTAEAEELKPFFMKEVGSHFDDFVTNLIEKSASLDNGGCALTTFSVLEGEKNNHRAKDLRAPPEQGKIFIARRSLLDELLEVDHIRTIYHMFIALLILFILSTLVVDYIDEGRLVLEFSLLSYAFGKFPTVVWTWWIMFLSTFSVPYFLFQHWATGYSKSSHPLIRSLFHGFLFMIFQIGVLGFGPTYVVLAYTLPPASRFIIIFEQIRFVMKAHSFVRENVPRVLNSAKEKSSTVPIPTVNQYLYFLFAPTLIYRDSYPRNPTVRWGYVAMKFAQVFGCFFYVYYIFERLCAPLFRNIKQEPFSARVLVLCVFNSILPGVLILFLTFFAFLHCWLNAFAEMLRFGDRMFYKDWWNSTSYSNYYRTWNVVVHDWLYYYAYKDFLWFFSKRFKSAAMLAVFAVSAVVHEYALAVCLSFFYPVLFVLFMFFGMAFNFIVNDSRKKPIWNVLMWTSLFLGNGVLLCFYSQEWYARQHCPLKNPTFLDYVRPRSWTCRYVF
Procedure: as §1, §2

ERα = target: T4, ERα (Homo sapiens, UniProt P03372); assay: Oestrogen receptor competition binding assay, ERα; settings: n.m. = no measurable inhibition of binding
T4 sequence (P03372 1-595): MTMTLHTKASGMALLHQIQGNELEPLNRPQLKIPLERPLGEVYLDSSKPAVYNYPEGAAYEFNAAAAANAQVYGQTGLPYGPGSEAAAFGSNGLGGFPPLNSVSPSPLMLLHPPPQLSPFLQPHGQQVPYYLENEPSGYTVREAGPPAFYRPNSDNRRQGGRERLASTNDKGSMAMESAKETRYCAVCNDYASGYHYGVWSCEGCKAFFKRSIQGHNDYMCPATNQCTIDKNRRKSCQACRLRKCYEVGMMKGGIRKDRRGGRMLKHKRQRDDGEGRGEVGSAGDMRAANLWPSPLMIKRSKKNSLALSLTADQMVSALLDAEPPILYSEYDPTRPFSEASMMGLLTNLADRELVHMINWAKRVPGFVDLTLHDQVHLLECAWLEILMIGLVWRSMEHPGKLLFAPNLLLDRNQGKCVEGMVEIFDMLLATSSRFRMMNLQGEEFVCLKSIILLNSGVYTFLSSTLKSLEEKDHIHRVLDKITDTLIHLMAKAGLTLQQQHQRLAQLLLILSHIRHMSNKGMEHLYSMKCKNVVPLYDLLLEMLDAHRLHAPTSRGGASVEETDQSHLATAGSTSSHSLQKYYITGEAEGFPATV
Procedure: (§3) Competition binding to ERα and ERβ was measured exactly as described previously.

ACAT in MCF-7 cells = target: T5, ACAT in MCF-7 cells (Homo sapiens, UniProt P35610); assay: ACAT activity in intact MCF-7 cells; format: cell-based; settings: MCF-7, 24 h, [14C]cholesterol; for IC50: read-out: IC50, inhibition of ACAT activity in intact cells
T5 construct: endogenous in cells; host or cells: MCF-7, MDA-MB-231, U-87
T5 sequence (P35610 1-550): T3 sequence (P35610 1-550)
Procedure: as §1, §2

ACAT in MB-231 cells = target: T6, ACAT in MB-231 cells (Homo sapiens, UniProt P35610); assay: ACAT activity in intact MB-231 cells; format: cell-based; settings: MB-231, 24 h, [14C]cholesterol; for IC50: read-out: IC50, inhibition of ACAT activity in intact cells
T6 construct: endogenous in cells; host or cells: MCF-7, MDA-MB-231, U-87
T6 sequence (P35610 1-550): T3 sequence (P35610 1-550)
Procedure: as §1, §2

ERβ = ERβ (Homo sapiens, UniProt Q92731); assay: Oestrogen receptor competition binding assay, ERβ; settings: n.m. = no measurable inhibition of binding
Sequence of ERβ (Q92731 whole entry, species assumed): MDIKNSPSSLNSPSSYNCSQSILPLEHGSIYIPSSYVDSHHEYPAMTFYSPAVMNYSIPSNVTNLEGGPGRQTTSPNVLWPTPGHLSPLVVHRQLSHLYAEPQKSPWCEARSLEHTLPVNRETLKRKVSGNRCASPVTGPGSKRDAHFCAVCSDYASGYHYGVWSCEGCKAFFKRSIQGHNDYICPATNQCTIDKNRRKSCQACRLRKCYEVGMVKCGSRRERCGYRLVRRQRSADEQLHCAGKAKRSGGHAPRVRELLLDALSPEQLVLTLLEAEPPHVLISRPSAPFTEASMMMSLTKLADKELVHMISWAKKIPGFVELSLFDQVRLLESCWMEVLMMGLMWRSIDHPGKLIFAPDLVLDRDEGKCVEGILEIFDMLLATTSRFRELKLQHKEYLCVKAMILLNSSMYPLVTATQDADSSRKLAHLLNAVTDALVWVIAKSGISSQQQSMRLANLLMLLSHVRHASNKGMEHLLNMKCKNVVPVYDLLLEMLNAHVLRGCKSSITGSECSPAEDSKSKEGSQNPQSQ
Procedure: as §3

[3] = test system: MCF-7, MB-231, U-87 and 3T3-EA cells; assay: Cell invasion assay (Matrigel-coated filters); format: cell-based
Procedure: Cells were added to six-well plates (40,000 cells/well) containing Dulbecco's Modified Eagle Medium (DMEM) and 10% FCS. Following incubation for 24 h, the cells were treated for a further 24 h in the presence of the test compounds, or else vehicle in DMEM and 2% Fetal Calf Serum (FCS). The cells were harvested and counted. Cells (20,000) were placed in serum-free DMEM on the surface of Nunc filters (8 mm diameter, […]; Nalgen Nunc International, Rochester, NY, USA). The filters were coated with growth factor-reduced Matrigel ([…] Matrigel; BD Biosciences, San Jose, CA, USA) in the presence of the test compounds or else vehicle. The base of the filter was filled with 10% FCS/DMEM. Following incubation for 48 h at 37 °C, cells which had invaded the Matrigel and attached themselves to the base of the filter were fixed, stained with Giemsa stain and counted microscopically.

[4] = test system: MCF-7, MB-231, U-87 and 3T3-EA cells; assay: Clonogenic assay (colony formation); format: cell-based; settings: Homo sapiens, MCF7, four tested cell lines, vs solvent vehicle, read-out: inhibition of cancer cell colony formation
Procedure: Following trypsinization of the cells, they were plated in tissue culture plates (60 mm) at a density of 500–1000 per plate. After adherence for 24 h, the drugs were added at the chosen final concentrations from freshly prepared stock solutions. The plates were washed twice with serum-free medium after 24 to 72 h incubation. Fresh medium was added and the plates were incubated at 37 °C until the colonies became visible. After incubation, the plates were washed with PBS and stained using Coomassie brilliant blue. The stained colonies were counted and are reported as the percentage of control cells (ethanol treated (0.01% (v/v)).

Compound | IC50, ChEH inhibition [1] | IC50 [2] | IC50 (ACAT in U-87 cells) | IC50, competition with radiolabelled 17β-estradiol binding to ERα (ERα) | IC50 (ACAT in MCF-7 cells) | IC50 (ACAT in MB-231 cells) | IC50, competition with radiolabelled 17β-estradiol binding to ERβ (ERβ) | inhibition of cell invasiveness ([3]; 25 μM, 24 h pre-treatment, 48 h invasion, four cell lines) | effect of added cholesteryl oleate on inhibition of cell invasiveness ([3]; cholesteryl oleate 4 µg/mL, MB-231 and U87 cells) | IC50, ChEH inhibition ([1]; listed as BrA) | inhibition at 25 µM [4] | IC50, inhibition of ACAT activity in intact cells [2] | IC50, inhibition of ACAT activity in intact cells (ACAT in U-87 cells) | IC50, inhibition of ACAT activity in intact cells (ACAT in MCF-7 cells) | IC50, inhibition of ACAT activity in intact cells (ACAT in MB-231 cells)
C[C@]12CC[C@@H]3c4ccc(O)cc4CC[C@H]3[C@@H]1CC[C@@H]2O [E2, 17β-estradiol] | n.m. | – | – | – | – | – | – | – | – | – | – | – | – | – | –
C=C(C)[C@@H]1CC[C@]2(C(=O)O)CC[C@]3(C)[C@H](CC[C@@H]4[C@@]5(C)CC[C@H](O)C(C)(C)[C@@H]5CC[C@]43C)[C@@H]12 [betulinic acid] | n.m. | 60.2 ± 8 µM | 61.4 ± 9.4 µM | n.m. | 53.7 ± 4.2 µM | 58.3 ± 8.1 µM | n.m. | – | – | – | – | – | – | – | –
CC1(C)[C@@H](O)CC[C@]2(C)C3=C(CC[C@@H]12)[C@@]1(C)CC[C@@]2(C)CC[C@@](C)(C(=O)O)C[C@H]2[C@]1(C)CC3 [bryonolic acid, D-C friedoolean-8-en-3β-ol-29 oic acid] | n.m. | 19.4 ± 7.6 µM | 17.5 ± 4.8 µM | n.m. | 22.5 ± 3.7 µM | 29.5 ± 5.5 µM | n.m. | observable in the four cell lines | blocked the inhibition of cell invasiveness triggered by BrA | does not inhibit ChEH | > 50% | – | – | – | –
CCCCCCCCCC[Si](C)(C)CCC(=O)NC(Cc1ccc(C)cc1)c1ccccc1 (centres unmarked) [sah 58-035, 3-[decyldimethylsilyl]-N-[2-(4-methylphenyl)-1-phenylethyl]-propanamide] | – | 7.4 ± 1.8 µM | 9.2 ± 2.2 µM | – | 5.1 ± 0.5 µM | 9.1 ± 1.4 µM | – | – | – | – | – | – | – | – | –
C[C@H]1[C@H](C)CC[C@]2(C(=O)O)CC[C@]3(C)C(=CC[C@@H]4[C@@]5(C)CC[C@H](O)C(C)(C)[C@@H]5CC[C@]43C)[C@H]12 [ursolic acid] | n.m. | – | – | – | – | – | n.m. | – | – | – | – | n.m | n.m. | n.m. | n.m.
